Measured values taken from patent US20250171438A1 (Agios Pharmaceuticals, Inc., priority 2022, published 2025).

What follows are compounds tested against T1, human PAH with the R408W mutation (Homo sapiens, UniProt P00439, R408W) (assay: Cell Based Phenylalanine Flux Assay). Conditions: A375 cells expressing human R408W PAH; 24 hrs compound incubation; 13C-Tyrosine by LC-MS; average where tested multiple times; read-out: AC50.
T1 construct: expressed in transfected cells
T1 sequence (P00439 1-452 R408W): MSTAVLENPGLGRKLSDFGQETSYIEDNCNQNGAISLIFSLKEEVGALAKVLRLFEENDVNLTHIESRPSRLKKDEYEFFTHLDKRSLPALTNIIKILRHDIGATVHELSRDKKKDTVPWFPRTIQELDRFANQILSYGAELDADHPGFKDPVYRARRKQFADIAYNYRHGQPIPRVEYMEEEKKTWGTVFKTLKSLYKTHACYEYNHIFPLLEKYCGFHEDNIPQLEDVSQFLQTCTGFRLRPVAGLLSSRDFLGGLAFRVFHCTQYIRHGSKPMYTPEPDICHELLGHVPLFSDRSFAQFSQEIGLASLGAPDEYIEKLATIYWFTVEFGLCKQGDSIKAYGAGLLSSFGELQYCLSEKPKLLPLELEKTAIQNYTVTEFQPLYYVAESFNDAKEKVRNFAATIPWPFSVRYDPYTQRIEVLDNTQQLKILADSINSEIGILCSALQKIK

Compound	AC50
O=C(c1cn(CC2CC(F)(F)C2)nc1Cl)N1CCc2[nH]cnc2[C@@H]1c1nc2c(F)cccc2s1 [Example 2004, (R)-(3-chloro-1-((3,3-difluorocyclobutyl)methyl)-1H-pyrazol-4-yl)(4-(4-fluorobenzo[d]thiazol-2-yl)-6,7-dihydro-1H-imidazo[4,5-c]pyridin-5(4H)-yl)methanone]	1 to 5 µM
CC(C)(c1nc(C(F)F)c(C(=O)N2CCc3[nH]cnc3[C@H]2c2nc3c(F)cccc3s2)o1)S(C)(=O)=O [Example 2005]	< 0.5 µM
CC(C)(c1nc(C(F)F)c(C(=O)N2CCc3[nH]cnc3[C@@H]2c2nc3c(F)cccc3s2)o1)S(C)(=O)=O [Example 2006, (R)-(4-(difluoromethyl)-2-(2-(methylsulfonyl)propan-2-yl)oxazol-5-yl)(4-(4-fluorobenzo[d]thiazol-2-yl)-6,7-dihydro-1H-imidazo[4,5-c]pyridin-5(4H)-yl)methanone]	1 to 5 µM
Cc1cccc2sc([C@@H]3c4nc[nH]c4CCN3C(=O)c3ncnn3C)nc12 [Example 2015]	0.5 to 1 µM
O=C(c1cnn(CC(F)F)c1Cl)N1CCc2[nH]cnc2[C@H]1c1nc2c(F)cccc2s1 [Example 2017, (S)-(5-chloro-1-(2,2-difluoroethyl)-1H-pyrazol-4-yl)(4-(4-fluorobenzo[d]thiazol-2-yl)-6,7-dihydro-1H-imidazo[4,5-c]pyridin-5(4H)-yl)methanone]	< 0.5 µM
O=C(c1cnn(CC(F)F)c1Cl)N1CCc2[nH]cnc2[C@@H]1c1nc2c(F)cccc2s1 [Example 2018, (R)-(5-chloro-1-(2,2-difluoroethyl)-1H-pyrazol-4-yl)(4-(4-fluorobenzo[d]thiazol-2-yl)-6,7-dihydro-1H-imidazo[4,5-c]pyridin-5(4H)-yl)methanone]	1 to 5 µM
CN1CCN(c2nc(C(F)F)c(C(=O)N3CCc4[nH]cnc4[C@H]3c3nc4c(F)cccc4s3)o2)CC1 [Example 2023, (S)-(4-(difluoromethyl)-2-(4-methylpiperazin-1-yl)oxazol-5-yl)(4-(4-fluorobenzo[d]thiazol-2-yl)-6,7-dihydro-1H-imidazo[4,5-c]pyridin-5(4H)-yl)methanone]	< 0.5 µM
CN1CCN(c2nc(C(F)F)c(C(=O)N3CCc4[nH]cnc4[C@@H]3c3nc4c(F)cccc4s3)o2)CC1 [Example 2024, (R)-(4-(difluoromethyl)-2-(4-methylpiperazin-1-yl)oxazol-5-yl)(4-(4-fluorobenzo[d]thiazol-2-yl)-6,7-dihydro-1H-imidazo[4,5-c]pyridin-5(4H)-yl)methanone]	1 to 5 µM
O=C(c1oc(N2CCOCC2)nc1C(F)F)N1CCc2[nH]cnc2[C@H]1c1nc2c(F)cccc2s1 [Example 2025, (S)-(4-(difluoromethyl)-2-morpholinooxazol-5-yl)(4-(4-fluorobenzo[d]thiazol-2-yl)-6,7-dihydro-1H-imidazo[4,5-c]pyridin-5(4H)-yl)methanone]	< 0.5 µM
O=C(c1oc(N2CCOCC2)nc1C(F)F)N1CCc2[nH]cnc2[C@@H]1c1nc2c(F)cccc2s1 [Example 2026, (R)-(4-(difluoromethyl)-2-morpholinooxazol-5-yl)(4-(4-fluorobenzo[d]thiazol-2-yl)-6,7-dihydro-1H-imidazo[4,5-c]pyridin-5(4H)-yl)methanone]	1 to 5 µM
CC(C)(C#N)c1nc(C(F)F)c(C(=O)N2CCc3[nH]cnc3[C@H]2c2nc3c(F)cccc3s2)o1 [Example 2027]	< 0.5 µM
CC(C)(C#N)c1nc(C(F)F)c(C(=O)N2CCc3[nH]cnc3[C@@H]2c2nc3c(F)cccc3s2)o1 [Example 2028, (R)-2-(4-(difluoromethyl)-5-(4-(4-fluorobenzo[d]thiazol-2-yl)-4,5,6,7-tetrahydro-1H-imidazo[4,5-c]pyridine-5-carbonyl)oxazol-2-yl)-2-methylpropanenitrile]	< 0.5 µM
Cc1cccc2sc([C@@H]3c4nc[nH]c4CCN3C(=O)c3cnn(C)c3C(F)F)nc12 [Example 2029, (S)-(5-(difluoromethyl)-1-methyl-1H-pyrazol-4-yl)(4-(4-methylbenzo[d]thiazol-2-yl)-6,7-dihydro-1H-imidazo[4,5-c]pyridin-5(4H)-yl)methanone]	0.5 to 1 µM

Next, values leading:

AC50	Compound
< 0.5 µM	CC(F)(F)c1ncoc1C(=O)N1CCc2[nH]cnc2[C@H]1c1nc2c(F)cccc2s1 [Example 2007]
1 to 5 µM	CC(F)(F)c1ncoc1C(=O)N1CCc2[nH]cnc2[C@@H]1c1nc2c(F)cccc2s1 [Example 2008, (R)-(4-(1,1-difluoroethyl)oxazol-5-yl)(4-(4-fluorobenzo[d]thiazol-2-yl)-6,7-dihydro-1H-imidazo[4,5-c]pyridin-5(4H)-yl)methanone]
< 0.5 µM	Cc1cccc2sc([C@@H]3c4nc[nH]c4CCN3C(=O)c3ocnc3C(F)(F)F)nc12 [Example 2009, (S)-(4-(4-methylbenzo[d]thiazol-2-yl)-6,7-dihydro-1H-imidazo[4,5-c]pyridin-5(4H)-yl)(4-(trifluoromethyl)oxazol-5-yl)methanone]
0.5 to 1 µM	Cc1cccc2sc([C@H]3c4nc[nH]c4CCN3C(=O)c3ocnc3C(F)(F)F)nc12 [Example 2010, (R)-(4-(4-methylbenzo[d]thiazol-2-yl)-6,7-dihydro-1H-imidazo[4,5-c]pyridin-5(4H)-yl)(4-(trifluoromethyl)oxazol-5-yl)methanone]
< 0.5 µM	Cc1cccc2sc([C@@H]3c4nc[nH]c4CCN3C(=O)c3ocnc3C(F)F)nc12 [Example 2011]
1 to 5 µM	Cc1cccc2sc([C@H]3c4nc[nH]c4CCN3C(=O)c3ocnc3C(F)F)nc12 [Example 2012, (R)-(4-(difluoromethyl)oxazol-5-yl)(4-(4-methylbenzo[d]thiazol-2-yl)-6,7-dihydro-1H-imidazo[4,5-c]pyridin-5(4H)-yl)methanone]
0.5 to 1 µM	Cc1cccc2sc([C@@H]3c4nc[nH]c4CCN3C(=O)c3cnco3)nc12 [Example 2013, (S)-(4-(4-methylbenzo[d]thiazol-2-yl)-6,7-dihydro-1H-imidazo[4,5-c]pyridin-5(4H)-yl)(oxazol-5-yl)methanone]
> 5 µM	Cc1cccc2sc([C@H]3c4nc[nH]c4CCN3C(=O)c3cnco3)nc12 [Example 2014, (R)-(4-(4-methylbenzo[d]thiazol-2-yl)-6,7-dihydro-1H-imidazo[4,5-c]pyridin-5(4H)-yl)(oxazol-5-yl)methanone]
> 5 µM	Cc1cccc2sc([C@H]3c4nc[nH]c4CCN3C(=O)c3ncnn3C)nc12 [Example 2016, (R)-(1-methyl-1H-1,2,4-triazol-5-yl)(4-(4-methylbenzo[d]thiazol-2-yl)-6,7-dihydro-1H-imidazo[4,5-c]pyridin-5(4H)-yl)methanone]
< 0.5 µM	Cc1cccc2sc([C@@H]3c4nc[nH]c4CCN3C(=O)c3ocnc3C#N)nc12 [Example 2019, (S)-5-(4-(4-methylbenzo[d]thiazol-2-yl)-4,5,6,7-tetrahydro-1H-imidazo[4,5-c]pyridine-5-carbonyl)oxazole-4-carbonitrile]
> 5 µM	Cc1cccc2sc([C@H]3c4nc[nH]c4CCN3C(=O)c3ocnc3C#N)nc12 [Example 2020, (R)-5-(4-(4-methylbenzo[d]thiazol-2-yl)-4,5,6,7-tetrahydro-1H-imidazo[4,5-c]pyridine-5-carbonyl)oxazole-4-carbonitrile]
0.5 to 1 µM	Cc1cccc2sc([C@@H]3c4nc[nH]c4CCN3C(=O)c3ccnn3C)nc12 [Example 2021]
